Source: paper PMC5792193 (Proteins, 2009)
Positions of bridges follow the written chain, without caps; N, C: chain ends. Residues, ends and D or L forms follow the SMILES beside them.

How the values were obtained:
[1] = biological target: integrin αvβ3 (Homo sapiens) (UniProt P06756); settings: cited from earlier work
[2] = system: U87MG cell adhesion to fibronectin-coated plates; experiment: Integrin-dependent cell adhesion assay; type: cell-based, human; settings: U87MG cells, 2 h
[3] = human serum, 37 °C, 24 h, reversed-phase HPLC
[4] = mouse, serum
[5] = system: U87MG tumor xenograft; settings: peptide conjugated to a small molecule fluorochrome or radiolabel; compared to weaker binding peptide conjugates including FN-RGD2 and c(RGDyK); cited from earlier work
[6] = biological target: α5β1 integrin (Homo sapiens, UniProt P05556+P08648); settings: cited from earlier work
[7] = biological target: αvβ3 integrin (Homo sapiens, UniProt P05106+P06756); settings: cited from earlier work
Sequence of αvβ3 integrin (P06756 31-889 limits assumed): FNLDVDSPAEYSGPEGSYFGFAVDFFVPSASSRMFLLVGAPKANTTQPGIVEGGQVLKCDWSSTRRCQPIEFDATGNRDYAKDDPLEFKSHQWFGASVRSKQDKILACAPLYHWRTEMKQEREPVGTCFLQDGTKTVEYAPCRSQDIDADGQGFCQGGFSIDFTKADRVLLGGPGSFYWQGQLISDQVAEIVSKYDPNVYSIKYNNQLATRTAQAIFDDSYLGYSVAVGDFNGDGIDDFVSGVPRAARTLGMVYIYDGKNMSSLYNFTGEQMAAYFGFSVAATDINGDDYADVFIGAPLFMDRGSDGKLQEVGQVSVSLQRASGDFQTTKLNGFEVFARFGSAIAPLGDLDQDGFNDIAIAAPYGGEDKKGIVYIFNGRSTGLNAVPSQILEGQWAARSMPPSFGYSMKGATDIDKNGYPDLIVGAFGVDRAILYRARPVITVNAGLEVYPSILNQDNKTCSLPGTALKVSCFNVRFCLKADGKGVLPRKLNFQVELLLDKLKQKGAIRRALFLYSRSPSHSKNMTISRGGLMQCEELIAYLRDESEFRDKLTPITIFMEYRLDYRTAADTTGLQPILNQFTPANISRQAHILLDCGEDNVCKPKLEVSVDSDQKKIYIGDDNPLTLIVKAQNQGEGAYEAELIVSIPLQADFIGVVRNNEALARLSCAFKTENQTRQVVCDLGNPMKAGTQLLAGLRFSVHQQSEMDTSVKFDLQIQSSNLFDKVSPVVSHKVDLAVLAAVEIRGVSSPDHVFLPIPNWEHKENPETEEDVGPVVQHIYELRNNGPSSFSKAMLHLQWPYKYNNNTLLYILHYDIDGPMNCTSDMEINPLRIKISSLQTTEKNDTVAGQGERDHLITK
Sequence of αvβ3 integrin (P06756 891-1048 partner limits assumed): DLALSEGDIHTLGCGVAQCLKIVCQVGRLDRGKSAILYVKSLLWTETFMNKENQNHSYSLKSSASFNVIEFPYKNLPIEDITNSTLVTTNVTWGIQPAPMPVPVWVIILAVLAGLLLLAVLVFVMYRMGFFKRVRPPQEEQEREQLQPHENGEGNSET
Sequence of αvβ3 integrin (P05106 27-788): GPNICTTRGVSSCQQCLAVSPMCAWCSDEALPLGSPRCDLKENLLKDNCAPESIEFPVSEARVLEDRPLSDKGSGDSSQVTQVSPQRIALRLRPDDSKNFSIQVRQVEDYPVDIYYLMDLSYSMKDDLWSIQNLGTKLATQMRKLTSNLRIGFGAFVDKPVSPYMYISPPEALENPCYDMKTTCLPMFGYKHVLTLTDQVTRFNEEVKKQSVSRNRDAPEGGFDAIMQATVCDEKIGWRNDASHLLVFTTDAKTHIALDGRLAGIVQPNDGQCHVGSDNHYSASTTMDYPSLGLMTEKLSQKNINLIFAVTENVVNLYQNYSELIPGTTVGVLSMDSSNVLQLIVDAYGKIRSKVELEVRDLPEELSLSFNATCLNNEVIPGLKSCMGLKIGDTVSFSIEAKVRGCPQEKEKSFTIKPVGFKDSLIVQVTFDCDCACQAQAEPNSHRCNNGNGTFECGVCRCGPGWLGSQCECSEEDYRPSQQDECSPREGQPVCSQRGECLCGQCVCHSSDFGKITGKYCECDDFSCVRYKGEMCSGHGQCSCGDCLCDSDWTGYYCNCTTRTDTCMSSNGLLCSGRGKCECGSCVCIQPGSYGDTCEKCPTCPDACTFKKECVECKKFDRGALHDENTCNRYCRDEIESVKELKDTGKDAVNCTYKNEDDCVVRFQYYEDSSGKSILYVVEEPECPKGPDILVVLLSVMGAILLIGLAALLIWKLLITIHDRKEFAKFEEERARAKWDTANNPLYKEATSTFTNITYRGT

Sequence of integrin αvβ3 (Homo sapiens) (P06756 31-1048, chain 1 of 2): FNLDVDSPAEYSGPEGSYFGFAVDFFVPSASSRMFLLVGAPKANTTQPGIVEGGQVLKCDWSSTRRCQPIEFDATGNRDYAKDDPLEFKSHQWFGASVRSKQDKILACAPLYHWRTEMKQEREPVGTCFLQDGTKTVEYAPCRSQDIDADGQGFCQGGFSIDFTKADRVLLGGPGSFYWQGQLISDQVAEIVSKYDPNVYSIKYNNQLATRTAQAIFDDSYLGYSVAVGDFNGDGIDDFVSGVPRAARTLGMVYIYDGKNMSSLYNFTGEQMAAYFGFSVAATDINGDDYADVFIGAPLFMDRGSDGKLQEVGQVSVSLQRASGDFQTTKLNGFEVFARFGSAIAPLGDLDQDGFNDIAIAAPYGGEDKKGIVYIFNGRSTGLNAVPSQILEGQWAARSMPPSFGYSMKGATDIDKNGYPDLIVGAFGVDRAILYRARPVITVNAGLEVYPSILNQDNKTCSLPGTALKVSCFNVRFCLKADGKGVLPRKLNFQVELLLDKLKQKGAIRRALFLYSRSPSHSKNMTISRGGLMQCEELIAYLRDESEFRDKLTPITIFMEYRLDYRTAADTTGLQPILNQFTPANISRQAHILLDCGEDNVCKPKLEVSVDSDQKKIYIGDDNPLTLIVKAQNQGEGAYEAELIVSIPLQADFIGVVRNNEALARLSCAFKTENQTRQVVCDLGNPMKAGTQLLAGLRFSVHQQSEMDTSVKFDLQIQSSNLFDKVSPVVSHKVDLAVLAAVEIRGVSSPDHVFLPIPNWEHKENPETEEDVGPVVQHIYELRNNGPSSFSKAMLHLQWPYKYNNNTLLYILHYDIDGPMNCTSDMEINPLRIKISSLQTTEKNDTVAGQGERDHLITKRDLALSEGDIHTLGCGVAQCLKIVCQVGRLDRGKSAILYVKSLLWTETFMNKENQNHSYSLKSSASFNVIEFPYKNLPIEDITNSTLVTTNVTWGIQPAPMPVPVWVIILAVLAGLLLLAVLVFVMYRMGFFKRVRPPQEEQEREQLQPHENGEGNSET
Sequence of integrin αvβ3 (Homo sapiens) (P05106 27-788, chain 2 of 2, further chain): as the sequence (P05106 27-788) above
Sequence of α5β1 integrin (P08648 42-894 limits assumed): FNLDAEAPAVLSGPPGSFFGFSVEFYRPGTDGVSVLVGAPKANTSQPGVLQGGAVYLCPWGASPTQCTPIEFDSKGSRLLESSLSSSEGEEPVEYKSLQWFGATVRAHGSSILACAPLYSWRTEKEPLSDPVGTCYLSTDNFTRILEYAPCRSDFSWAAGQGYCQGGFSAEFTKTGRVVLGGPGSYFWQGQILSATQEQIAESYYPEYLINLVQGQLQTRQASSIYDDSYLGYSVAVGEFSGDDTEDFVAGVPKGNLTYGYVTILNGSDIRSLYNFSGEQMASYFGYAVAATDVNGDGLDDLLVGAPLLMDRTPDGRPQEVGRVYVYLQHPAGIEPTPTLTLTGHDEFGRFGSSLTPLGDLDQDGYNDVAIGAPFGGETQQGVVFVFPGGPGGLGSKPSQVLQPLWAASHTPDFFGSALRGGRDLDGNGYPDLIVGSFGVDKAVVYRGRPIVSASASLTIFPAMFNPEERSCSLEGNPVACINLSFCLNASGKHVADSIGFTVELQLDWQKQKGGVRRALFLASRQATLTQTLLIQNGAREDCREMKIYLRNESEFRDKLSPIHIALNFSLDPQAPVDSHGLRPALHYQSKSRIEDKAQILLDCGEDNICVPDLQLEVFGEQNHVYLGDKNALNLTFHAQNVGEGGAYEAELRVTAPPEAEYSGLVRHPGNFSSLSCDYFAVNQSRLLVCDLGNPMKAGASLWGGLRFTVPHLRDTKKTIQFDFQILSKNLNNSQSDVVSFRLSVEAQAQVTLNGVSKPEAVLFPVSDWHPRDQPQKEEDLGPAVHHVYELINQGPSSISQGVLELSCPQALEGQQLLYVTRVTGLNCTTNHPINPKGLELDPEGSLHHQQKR
Sequence of α5β1 integrin (P08648 895-1049 partner limits assumed): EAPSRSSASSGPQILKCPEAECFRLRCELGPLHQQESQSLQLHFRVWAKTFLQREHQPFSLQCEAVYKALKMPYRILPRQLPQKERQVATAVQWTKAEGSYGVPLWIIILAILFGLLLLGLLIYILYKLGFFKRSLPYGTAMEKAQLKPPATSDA
Sequence of α5β1 integrin (P05556 21-798): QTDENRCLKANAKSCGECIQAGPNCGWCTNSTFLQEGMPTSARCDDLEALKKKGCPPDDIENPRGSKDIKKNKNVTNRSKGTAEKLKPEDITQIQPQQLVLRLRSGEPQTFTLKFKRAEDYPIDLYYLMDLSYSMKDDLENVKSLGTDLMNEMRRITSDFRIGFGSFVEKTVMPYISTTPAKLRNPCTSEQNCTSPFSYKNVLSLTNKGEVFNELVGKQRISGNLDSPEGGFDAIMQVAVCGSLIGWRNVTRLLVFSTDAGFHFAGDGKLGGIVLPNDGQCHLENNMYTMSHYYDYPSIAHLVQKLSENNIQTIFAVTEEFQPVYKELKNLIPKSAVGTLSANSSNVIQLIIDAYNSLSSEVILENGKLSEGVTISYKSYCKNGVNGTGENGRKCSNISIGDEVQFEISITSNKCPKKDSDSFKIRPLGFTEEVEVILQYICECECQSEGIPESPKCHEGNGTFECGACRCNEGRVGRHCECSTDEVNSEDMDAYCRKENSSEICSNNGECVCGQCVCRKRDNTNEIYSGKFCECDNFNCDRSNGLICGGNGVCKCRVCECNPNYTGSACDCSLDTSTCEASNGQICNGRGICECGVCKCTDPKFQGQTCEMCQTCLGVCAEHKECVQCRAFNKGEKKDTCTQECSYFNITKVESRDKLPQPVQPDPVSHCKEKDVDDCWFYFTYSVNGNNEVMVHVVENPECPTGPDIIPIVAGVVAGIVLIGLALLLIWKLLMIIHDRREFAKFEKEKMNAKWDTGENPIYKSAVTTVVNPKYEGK
Sequence of Echistatin (P17347 131-179): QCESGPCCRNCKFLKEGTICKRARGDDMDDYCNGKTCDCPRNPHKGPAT

Echistatin (from UniProt P17347)
Kd [1]: 0.36 nM

Echistatin
block of U87MG cell adhesion to fibronectin-coated plates (in words) [2]: able to block

CC(C)C[C@@H]1NC(=O)[C@@H]2CSSC[C@@H](C(=O)NCC(=O)O)NC(=O)[C@H](Cc3ccccc3)NC(=O)CNC(=O)[C@H](CC(N)=O)NC(=O)[C@@H]3CCCN3C(=O)CNC(=O)[C@@H]3CSSC[C@H](NC(=O)[C@H](CO)NC(=O)[C@H]([C@@H](C)O)NC(=O)[C@@H]4CCCN4C(=O)[C@H](C)NC(=O)[C@H](Cc4c[nH]c5ccccc45)NC(=O)[C@H](CC(=O)O)NC(=O)CNC(=O)[C@H](CCCNC(=N)N)NC(=O)CNC(=O)[C@H](CCC(N)=O)NC(=O)[C@@H]4CCCN4C(=O)[C@@H](NC(=O)CN)CSSC[C@H](NC(=O)CNC(=O)[C@H](C)NC1=O)C(=O)N[C@@H](C(C)C)C(=O)N3)C(=O)N[C@@H](CO)C(=O)N[C@@H](CCC(N)=O)C(=O)N[C@@H](CC(=O)O)C(=O)N[C@@H](CO)C(=O)N[C@@H](CC(=O)O)C(=O)N2 [2.5D] (H-GCPQGRGDWAPTSCSQDSDCLAGCVCGPNGFCG-OH; disulfide 2-24, 14-26, 20-32)
intact peptide remaining [3]: approximately 90%
remaining at 24 h [4]: ~90%
tumor uptake (in words) [5]: significant increase in tumor uptake

CC(C)C[C@@H]1NC(=O)[C@@H]2CSSC[C@@H](C(=O)NCC(=O)O)NC(=O)[C@H](Cc3ccccc3)NC(=O)CNC(=O)[C@H](CC(N)=O)NC(=O)[C@@H]3CCCN3C(=O)CNC(=O)[C@@H]3CSSC[C@H](NC(=O)[C@H]([C@@H](C)O)NC(=O)[C@H](CC(C)C)NC(=O)[C@@H]4CCCN4C(=O)[C@@H]4CCCN4C(=O)[C@H](CC(N)=O)NC(=O)[C@H](CC(=O)O)NC(=O)CNC(=O)[C@H](CCCNC(=N)N)NC(=O)[C@@H]4CCCN4C(=O)[C@H](CCCNC(=N)N)NC(=O)[C@@H]4CCCN4C(=O)[C@@H](NC(=O)CN)CSSC[C@H](NC(=O)CNC(=O)[C@H](C)NC1=O)C(=O)N[C@@H](C(C)C)C(=O)N3)C(=O)N[C@@H](CO)C(=O)N[C@@H](CCC(N)=O)C(=O)N[C@@H](CC(=O)O)C(=O)N[C@@H](CO)C(=O)N[C@@H](CC(=O)O)C(=O)N2 [2.5F] (H-GCPRPRGDNPPLTCSQDSDCLAGCVCGPNGFCG-OH; disulfide 2-24, 14-26, 20-32)
tumor uptake (in words) [5]: significant increase in tumor uptake

Ac-PHSCN-NH2 [ATN-161]
binding affinity to α5β1 integrin (in words) [6]: micromolar affinity
binding affinity to αvβ3 integrin (in words) [7]: micromolar affinity
